Experimental data published in patent US10081609B2, “Compounds for inducing proliferation and differentiation of cells, and methods of use thereof” (The Broad Institute, Inc., priority 2013, dated 2018).
≈ marks a conversion by molar mass, not a printed value. Where “and” joins values, the source holds several entries; their conditions need not be identical. Equal entries are not always repeated. Where two headings read alike, the source gives them in different places.

Experiments:
[1] = Plasma stability - Human; assay type: in vitro ADME
Description: (§1) Selected compounds of the invention were evaluated for physico-chemical properties, including solubility, microsomal stability, protein binding and plasma stability (Table 2).
(§2) Selected compounds of the invention were evaluated for physico-chemical properties, including solubility, microsomal stability, protein binding and plasma stability (Table 3).

[2] = test system: human primary hepatocytes; test: Expansion of compound-treated human primary hepatocytes (cell counts, Ki67 staining); assay type: cell-based; settings: FIG. 11A
Description: The metabolic phenotype of the treated hepatocytes was assessed for canalicular transport. […] Gene expression profiling confirmed that there was no significant differences between FPH-treated and untreated hepatocytes (FIG. 11D).
The ability of compounds 201-212, 215, 217 and 244-258 to expand human primary hepatocytes in vitro was also tested.

[3] = test system: iHeps; test: Differentiation and maturation of iHeps (albumin/AFP ELISA, staining, CYP3A4 activity); assay type: cell-based, human
Description: Undifferentiated iPS cells were cultured on Matrigel, supported by primary mouse embryonic fibroblasts. Once confluent, iPS cells were transitioned to differentiation media, with sequential addition of growth factors (Activin A, BMP-4, bFGF, HGF, and OSM) to guide differentiation, first into endoderm, then into hepatic progenitor cells and finally into iHeps. Compound treatment started on day 21 post initiation of differentiation and acted over a period of 9 days.
Consistent with the literature, untreated cultures had islands that double stain for albumin and the fetal marker AFP, with very little presence of the mature marker […].
The ability of compounds 201-212, 217 and 244-258 to affect the differentiation of iHeps was also tested.

[4] = Solubility in PBS with 1% DMSO; assay type: physicochemical
Description: as §1, §2

[5] = Microsomal stability - Human; assay type: in vitro ADME; settings: for Microsomal stability No NADPH: non-enzymatic microsomal mechanisms only; for Microsomal stability Average: enzymatic and non-enzymatic microsomal mechanisms
Description: as §1, §2

[6] = Protein binding - Human; assay type: in vitro ADME
Description: as §1, §2

[7] = test system: human primary hepatocytes; test: High-throughput liver platform, primary screening: hepatocyte proliferation by automated high-content imaging (hepatocyte nuclei numbers); assay type: cell-based; settings: for hit class in the high-throughput liver platform: human primary hepatocytes
Description: In order to avoid species-specific differences and cell line mutations, the screen was conducted with human primary hepatocytes. Traditionally, chemical screening on such cells has been hindered by their availability in large quantities as well as their rapid loss of viability and phenotype in vitro. Recent advances in cryopreservation technologies allowed enough primary human cells to be stored for screening; these cells are maintained through co-cultivation with non-parenchymal cells. Co-cultures of primary human hepatocytes with murine embryonic J2-3T3 fibroblasts were recently shown to maintain normal hepatocyte phenotype for weeks. These in vitro platforms consisted of hepatocytes surrounded by a co-planar population of fibroblasts. While sufficient for stabilizing hepatocyte functions in vitro, such platforms may limit normal hepatocyte expansion due to contact inhibition. Thus, for this screen, a sparse population of hepatocytes was co-cultivated on top of a confluent feeder layer of J2-3T3 fibroblasts within 384-well plates (FIG. 1A top). This screening platform stabilized hepatocyte phenotypic functions in vitro (FIG. 1A bottom) and was compatible with two separate high-throughput readouts developed for this screen.
The primary readout detected hepatocyte proliferation via automated high-content imaging. This assay quantified hepatocyte nuclei numbers, using nuclear morphologies to separate the hepatocyte and fibroblast subpopulations that co-exist within the screening platform. When visualized with Hoechst stain, hepatocyte nuclei were smaller and more uniform in texture while fibroblast nuclei were larger and punctated (FIG. 1A bottom). Leveraging this distinction, automated image analyses was developed that utilized machine learning algorithms to classify nuclei types and tabulate hepatocyte nuclei numbers. […] Besides quantifying hepatocyte nuclei that have completed mitosis, the number of nuclei in the process of mitosis were also quantified. Two additional analysis pipelines were built to detect nuclear morphologies consistent with cells undergoing metaphase and anaphase.
FIG. 1B top summarizes the workflow of the screen. Primary screening was done on human primary hepatocytes, preconditioned for seven days by non-parenchymal cells in the screening platform. Upon stabilization in vitro, cultures were treated with the chemical library for 48 hours. All compounds were tested in duplicates, at a single concentration of 15 μM. This single concentration was selected via a pilot screen of ˜2,000 small molecules. All 12,480 small molecules were initially tested on a single donor of cryopreserved hepatocytes (donor a) in order to eliminate noise from donor-to-donor variability. Following compound treatment, media supernatants were collected for functional analyses via ELISA and cultures were fixed in 4% paraformaldehyde for proliferation analyses via imaging.
To identify proliferation hits, three image-based readouts—one each to quantify the number of (1) hepatocyte nuclei in interphase, (2) nuclei in metaphase and (3) nuclei in anaphase—were integrated. z Scores were converted into p values, which were then used to generate ranked lists of compounds based on the efficacy and consistency of effects across the different proliferation readouts. Efficacy was assessed by the product of p values (pprod=pinter×pmeta×pana); consistency was evaluated by the maximum of p values (pmax=max(pinter, pmeta, pana). Compounds were considered proliferation hits if pprod<1×10^−6 and pmax<0.25. Functional hits were selected by an ELISA […]. Compounds with ELISA z>3.0 were eliminated as toxic. 93 compounds met all hit selection criteria, qualifying as Functional Proliferation Hits (FPH); FIG. 1B bottom illustrates the types of compounds that constituted this set of hits.

[8] = test system: transgenic lfabp:GFP zebrafish; test: Liver development in transgenic lfabp:GFP zebrafish embryos; assay type: in vivo; settings: exposure 24 to 72 hrs post fertilization
From the text: The effects of FH1 and PH1 on liver development were examined in transgenic lfabp:GFP zebrafish, in which GFP expression is restricted to the liver. Zebrafish embryos were allowed to develop normally for 24 hrs post fertilization and then exposed to either FH1 or PH1 until 72 hrs post fertilization (FIG. 8A). Livers were visualized by whole-mount fluorescence imaging (FIG. 8B) and lfabp in situ hybridization (FIG. 8C).

[9] = test system: lfabp:GFP zebrafish embryos; test: Therapeutic window after a non-fatal dose of APAP in zebrafish embryos (liver size); assay type: in vivo; settings: 5 mM APAP for 24 hrs before 24 hour treatment
Description: The current clinical treatment for APAP toxicity is the administration of NAC, which has a limited window of efficacy. To examine the therapeutic window of FH1 and PH1 efficacy, lfabp:GFP zebrafish embryos were allowed to develop normally for 48 hrs post fertilization, and then exposed to a non-fatal dose of 5 mM APAP for 24 hrs before initiation of treatment with FH1 or PH1 for an additional 24 hour period (FIG. 10A).

[10] = test system: iPS-derived endothelial cells; test: Differentiation of iPS-derived endothelial cells (nitric oxide); assay type: cell-based
Description: Cells were assayed for nitric oxide (NO), a mature marker for endothelial cells. CB=FPH2, M=FH1, E=PH1, while Null and DMSO are control runs with no additive and vehicle only, respectively.

[11] = aqueous buffer, kinetic from dmso stock, read-out: Solubility Average
[12] = aqueous buffer, kinetic from dmso stock, read-out: Solubility Rep1
[13] = aqueous buffer, kinetic from dmso stock, read-out: Solubility Rep2
[14] = aqueous buffer, kinetic from dmso stock, read-out: Solubility Rep3

SMILES	Plasma stability Average [1]	solubility [4, 11] [µM]	solubility [4, 12] [µM]	solubility [4, 13] [µM]	solubility [4, 14] [µM]	Microsomal stability Rep1 [5] [% remaining]	Microsomal stability Rep2 [5] [% remaining]	Microsomal stability No NADPH [5] [% remaining]	Microsomal stability Average [5] [% remaining]	Protein binding Average [6] [% bound]	Protein binding Rep1 [6] [% bound]	Protein binding Rep2 [6] [% bound]	further results
CC1CC(OC(=O)C(O)c2ccccc2)CC(C)(C)N1C (stereo not drawn) [Eucatropine, reference compound]	0.5 % remaining and 0.4 % remaining	–	–	–	–	–	–	–	–	–	–	–	–
C[C@H](CO)N1C[C@H](C)[C@H](CN(C)C(=O)Nc2ccc(F)cc2)Oc2ncc(-c3cc4ccccc4o3)cc2C1=O [Compound 106, 1-(((2R,3S)-8-(benzofuran-2-yl)-5-((R)-1-hydroxypropan-2-yl)-3-methyl-6-oxo-3,4,5,6-tetrahydro-2H-pyrido[2,3-b][1,5]oxazocin-2-yl)methyl)-3-(4-fluorophenyl)-1-methylurea]	98.0 % remaining	25 (≈ 13.7 µg/mL)	23 (≈ 12.6 µg/mL)	28 (≈ 15.3 µg/mL)	24 (≈ 13.1 µg/mL)	53.9	58.1	104.2	56.0	99.3	99.3	99.3	proliferation of hepatocytes [2]: induced proliferation; albumin staining (immunofluorescent) [3]: dramatic increases; hepatocyte phenotype of treated iHeps [3]: more mature hepatocyte phenotypes; AFP secretion (ELISA) ([3]; treatment from day 21, 9 days): decreased; albumin secretion (ELISA) ([3]; treatment from day 21, 9 days): increased
CCCCC[C@H](O)/C=C/[C@H]1[C@H](O)CC(=O)[C@@H]1C/C=C\CCCC(=O)O [PGE2, Prostaglandin E2, reference compound]	–	–	–	–	–	–	–	–	–	–	–	–	hit class in the high-throughput liver platform [7]: FPH
CSc1ccccc1NC(=O)CN(c1cc(Cl)ccc1C)S(C)(=O)=O [Compound 102, 2-(N-(5-chloro-2-methylphenyl)methylsulfonamido)-N-(2-(methylthio)phenyl)acetamide]	–	–	–	–	–	–	–	–	–	–	–	–	proliferation Z score (hepatocyte nuclei count) [7]: 2.24; hit class in the high-throughput liver platform [7]: proliferation-only hit
CCCCOc1cc(CC2CNC(=O)N2)ccc1OC (stereo not drawn) [BRD-A07207424-001-04-1]	105.9 % remaining	> 100	112 (≈ 31.2 µg/mL)	114 (≈ 31.7 µg/mL)	104 (≈ 28.9 µg/mL)	81.5	85.5	100.3	83.5	75.6	76.2	75.0	–
CCn1cc(NC(=S)Nc2cc(Cl)ccc2OC)c(C(N)=O)n1 [BRD-K94248251]	63.9 % remaining	20 (≈ 7.08 µg/mL)	23 (≈ 8.14 µg/mL)	16 (≈ 5.66 µg/mL)	21 (≈ 7.43 µg/mL)	41.7	39.4	123.1	40.6	95.8	95.7	95.9	–
CCCCOc1cc(CC2CNC(=O)N2)ccc1OC (stereo not drawn) [PH1, 4-(3-butoxy-4-methoxybenzyl)imidazolidin-2-one]	–	–	–	–	–	–	–	–	–	–	–	–	liver size compared to DMSO-treated controls [8]: increased; embryonic liver size / liver mass after APAP compared to controls [9]: mitigated APAP-induced loss of liver mass; differentiation of iPS-derived endothelial cells (nitric oxide) [10]: induce differentiation
Clc1ccccc1C(c1ccccc1)(c1ccccc1)n1ccnc1 [Clotrimazole, reference compound]	–	2.2 (≈ 0.759 µg/mL)	–	1.9 (≈ 0.655 µg/mL)	3.1 (≈ 1.07 µg/mL)	–	–	–	–	–	–	–	solubility ([4]; read-out: Solubility Average): 2.6 µM (≈ 0.897 µg/mL); solubility ([4]; read-out: Solubility Rep2): 2.1 µM (≈ 0.724 µg/mL); solubility ([4]; read-out: Solubility Rep3): 2.0 µM (≈ 0.69 µg/mL)
Cc1ccc(Cl)cc1N(CC(=O)N(S)c1c(F)cccc1F)S(C)(=O)=O [BRD-K61250484-001-01-5]	101.4 % remaining	23 (≈ 9.68 µg/mL)	23 (≈ 9.68 µg/mL)	22 (≈ 9.26 µg/mL)	26 (≈ 10.9 µg/mL)	4.2	4.5	110.6	4.4	91.2	90.9	91.6	–
CC(=O)Nc1ccc(Cc2ccc(NC(C)=O)cc2)cc1 [BRD-K44777625-001-01-9]	100.6 % remaining	40 (≈ 11.3 µg/mL)	45 (≈ 12.7 µg/mL)	39 (≈ 11 µg/mL)	36 (≈ 10.2 µg/mL)	71	66.7	63	68.9	91.0	91.0	91.0	–
